The structures appear in SMILES notation. Values after ≈ are worked out from the molar mass of the structure shown. Bounds are passed on as bounds.

Data set [1] has as its system CCRF-CEM. The data set can be described thus: Cytostatic activity against human CEM cells. Format: functional.
The subject of another data set is MOLT-4. Briefly: Cytostatic activity against human Molt4/C8 cells. Format: functional, cell-based.
A short description of data set [2]: Cytostatic activity against mouse L1210/0 cells. It counts as functional, cell-based.
Data set [3] is described as follows: Antiproliferative activity against mouse L1210/0 cells. Format: functional, cell-based.
A short description of data set [4]: Antiproliferative activity against human Molt4/C8 cells. It counts as functional, cell-based. Particulars: MOLT-4.
Data set [5] concerns Human immunodeficiency virus 1. The data set can be described thus: Antiviral activity against HIV1. It counts as functional, organism-based.
Data set [6] concerns Human immunodeficiency virus 2. The data set can be described thus: Antiviral activity against HIV2. It counts as functional, organism-based.
For data set [7], the system named is unidentified influenza virus. The data set can be described thus: Antiviral activity against Influenza virus. It counts as functional.
Data set [8] concerns Cytomegalovirus. The data set can be described thus: Antiviral activity against Cytomegalovirus AD169 infected in HEL cells assessed as inhibition of viral plaque formation. Particulars: Human betaherpesvirus 5, AD169, HEL. It counts as functional, organism-based.
Data set [9] concerns Cytomegalovirus. Briefly: Antiviral activity against Cytomegalovirus Davis infected in HEL cells assessed as inhibition of virus plaque formation. Format: functional, organism-based. Particulars: Human betaherpesvirus 5, Davis.
In a further data set the test system is Influenza A virus. The data set can be described thus: Antiviral activity against Influenza A virus. Format: functional, organism-based.
Data set [10] can be described thus: Binding affinity to HSV1 uracil-DNA glycosylase after 30 mins by electrophoretic mobility shift assay. Further details: species or system Human alphaherpesvirus 1.
The test system of another data set is Human betaherpesvirus 5. The data set can be described thus: Antiviral activity against HCMV infected in HEL cells assessed as inhibition of virus-induced cytopathic effect after 6 days. Format: functional, organism-based. Particulars: Human betaherpesvirus 5, HEL, 144 h.
In data set [11] the test system is Vesicular stomatitis virus. The data set can be described thus: Antiviral activity against Vesicular stomatitis virus. Format: functional, organism-based.
The test system of another data set is Vaccinia virus. Briefly: Antiviral activity against Vaccinia virus. It counts as functional, organism-based. Particulars: Orthopoxvirus vaccinia.
For data set [12], the system named is Human immunodeficiency virus 1. Briefly: Antiviral activity against HIV1 infected in human MT4 cells assessed as inhibition of virus-induced cytopathic effect. It counts as functional, organism-based. Particulars: Human immunodeficiency virus 1, MT4.
The test system of another data set is Human alphaherpesvirus 2. The data set can be described thus: Antiviral activity against Herpes simplex virus 2 G assessed as inhibition of virus-induced cytopathic effect by cell based assay. Format: functional. Particulars: Human alphaherpesvirus 2, strain G.
The subject of a further data set is Human alphaherpesvirus 1. Briefly: Antiviral activity against Herpes simplex virus 1 KOS assessed as inhibition of virus-induced cytopathic effect by cell based assay. It counts as functional. Particulars: Human alphaherpesvirus 1, KOS.
In data set [13] the target is T1, Inosine-adenosine-guanosine-nucleoside hydrolase (Trypanosoma brucei brucei, UniProt O15727).
T1 sequence (O15727 whole entry): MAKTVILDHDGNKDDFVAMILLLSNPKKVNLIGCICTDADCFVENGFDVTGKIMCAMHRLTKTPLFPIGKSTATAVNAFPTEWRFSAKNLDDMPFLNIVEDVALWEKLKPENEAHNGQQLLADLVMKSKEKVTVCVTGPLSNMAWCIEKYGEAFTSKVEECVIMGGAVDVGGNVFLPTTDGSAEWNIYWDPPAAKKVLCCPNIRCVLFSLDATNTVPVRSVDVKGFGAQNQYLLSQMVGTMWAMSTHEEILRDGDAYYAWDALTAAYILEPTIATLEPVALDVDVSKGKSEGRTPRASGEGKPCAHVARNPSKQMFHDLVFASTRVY
Briefly: Inhibition of Trypanosoma brucei brucei inosine-adenosine-guanosine nucleoside hydrolase expressed in Escherichia coli.

Data set [14] in a line: Inhibition of Trichomonas vaginalis purine nucleoside phosphorylase using […] as substrate by xanthine oxidase coupled enzyme assay.
Data set [15] has as its target T2, Inosine-uridine preferring nucleoside hydrolase (Crithidia fasciculata, UniProt Q27546).
T2 sequence (Q27546 whole entry): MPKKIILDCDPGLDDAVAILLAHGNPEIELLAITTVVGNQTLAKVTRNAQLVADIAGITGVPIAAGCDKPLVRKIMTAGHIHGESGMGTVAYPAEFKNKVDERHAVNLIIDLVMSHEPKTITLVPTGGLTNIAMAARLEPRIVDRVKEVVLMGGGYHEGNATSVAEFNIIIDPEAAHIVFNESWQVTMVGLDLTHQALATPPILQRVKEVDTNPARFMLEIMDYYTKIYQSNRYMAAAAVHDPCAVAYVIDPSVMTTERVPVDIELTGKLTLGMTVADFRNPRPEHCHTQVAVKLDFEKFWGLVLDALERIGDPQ
Briefly: Inhibition of Crithidia fasciculata inosine-uridine nucleoside hydrolase expressed in Escherichia coli using p-nitrophenyl beta-D-ribofuranoside as substrate by xanthine oxidase coupled enzyme assay.

A short description of data set [16]: Cytotoxicity against human CEM/0 cells assessed as reduction in cell viability. Format: cell-based, CCRF-CEM.
The nature of data set [17]: Cytotoxicity against HEL cells assessed as reduction in cell viability. Format: cell-based. Particulars: human.
Data set [18] in a line: Cytotoxicity against human E6SM cells assessed as alteration in cell morphology by microscopic method. Format: cell-based.
A short description of data set [19]: Cytotoxicity against African green monkey Vero cells assessed as alteration in cell morphology by microscopic method. It counts as cell-based. Particulars: chlorocebus sabaeus.
The nature of data set [20]: Cytotoxicity against human HeLa cells assessed as alteration in cell morphology by microscopic method. It counts as cell-based.
The next data set has as its system Hepatitis C virus. The data set can be described thus: Antiviral activity against Hepatitis C virus. Format: functional, organism-based, Hepacivirus hominis.
The test system of data set [21] is CCRF-CEM. Briefly: Growth inhibition of human CCRF-CEM cells. It counts as functional, cell-based.
Data set [22] is described as follows: Cytotoxicity against human CEM/0 cells. Format: cell-based, CCRF-CEM.
Data set [23] is described as follows: Cytotoxicity against HEL cells. It counts as cell-based. Particulars: human.
Data set [24] is described as follows: Cytotoxicity against human E6SM cells. It counts as cell-based.
Data set [25] can be described thus: Cytotoxicity against African green monkey Vero cells. Format: cell-based. Particulars: chlorocebus sabaeus.
Data set [26] in a line: Cytotoxicity against human HeLa cells. It counts as cell-based.
Data set [27] is described as follows: Cytotoxicity against MDCK cells. Format: cell-based, Canis lupus familiaris. Particulars: dog.
Data set [28] deals with Human immunodeficiency virus 1. The data set can be described thus: Antiviral activity against HIV1 infected in human CEM cells assessed as protection against virus-induced cytopathicity by giant cell formation assay. Format: functional, organism-based. Particulars: Human immunodeficiency virus 1, CCRF-CEM.
For data set [29], the system named is Human immunodeficiency virus 2. Briefly: Antiviral activity against HIV2 infected in human CEM cells assessed as protection against virus-induced cytopathicity by giant cell formation assay. Format: functional, organism-based. Particulars: Human immunodeficiency virus 2, CCRF-CEM.

As to `CC1(C)[C@@H](CO)CC[C@@]1(C)Cn1cnc2c(Cl)ncnc21`, the Activity in the data set with CCRF-CEM [1] came out at 14 µg/mL; in the data set with MOLT-4 it was 9 µg/mL; in data set [2], 13 µg/mL.
`CC1(C)[C@@H](Cn2cnc3c(Cl)nc(N)nc32)CC[C@@]1(C)CO`: the figures for the IC50 in data set [3] and in [4] were 16.2 µg/mL (≈ 50 µM) and 13.2 µg/mL (≈ 40.8 µM), respectively. For the same molecule, the EC50 in [5] and in data set [6] was 4 µg/mL (≈ 12.4 µM) in each case.
In turn, `CC1(C)[C@@H](Cn2cnc3c(Cl)ncnc32)CC[C@@]1(C)CO` showed an IC50 in data set [4] of 3.8 µg/mL (≈ 12.3 µM). In data set [7], the MIC was 10 µg/mL (≈ 32.4 µM).
On to `Nc1nc(Cl)c2ncn(C[C@H]3CCC[C@H]3CO)c2n1`, for which the IC50 in the data set with Cytomegalovirus [8] and in the data set with Cytomegalovirus [9] was greater than 5 µg/mL each time.
On to `O=c1ccn(C[C@H]2C[C@H](O)[C@@H](CO)O2)c(=O)[nH]1`, for which half-maximal inhibition in the data set on Influenza A virus (IC50) required 94.2 µg/mL (≈ 389 µM). In addition, the Kd in data set [10] stood at 0.16 µM.
With `Nc1ncnc2c1ncn2CC1(CO)CC=CC1`, in the data set with Human betaherpesvirus 5, the EC50 was found to be 78.1 µM.
Take `Cc1ccc(S(=O)(=O)OC[C@H]2OC[C@@H]3OCO[C@@H]32)cc1`: the IC50 (in data set [11]; with Vaccinia virus) was greater than 400 µg/mL in each case.
With `Nc1ccn(CC2(CO)CC=CC2)c(=O)n1`, in data set [12], the EC50 worked out at 56.4 µM.
Take `Nc1nc2c(ncn2C[C@H]2C[C@H](O)[C@@H](CO)O2)c(=O)[nH]1`: the MIC in the data set with Human alphaherpesvirus 2 and in the data set with Human alphaherpesvirus 1 was 5 µg/mL (≈ 17.8 µM) in each case.
Consider `Nc1ncnc2c1ncn2C[C@@H]1N[C@H](CO)[C@@H](O)[C@H]1O`, for which the figures for the Ki in [13], in [14] and in data set [15] were 3.6 µM, greater than 10 µM and 5.4 µM, respectively.
For the molecule `Nc1nc(Cl)c2ncn(C[C@H]3CC[C@@H](CO)C3)c2n1`, the cytotoxic concentration (CC50) in data set [16], in data set [17], in [18], in data set [19] and in [20] was 1 µg/mL (≈ 3.55 µM) in each case.
On to `Clc1ncnc2c1ncn2CC12CCC(O1)c1cc3ccccc3cc12` (centres undefined), for which the EC50 in the data set on Hepatitis C virus was determined as 6.31 µM. Moreover, in the data set with CCRF-CEM [21], the IC50 worked out at 5.73 µM.
Turning to `Nc1ncnc2c1ncn2C[C@H]1CC[C@@H](CO)C1`, the IC50 in data set [3] and in data set [4] was 73 µg/mL (≈ 295 µM) each time. Also, the CC50 in [22], in data set [23], in data set [24], in data set [25], in [26] and in data set [27] was 80 µg/mL (≈ 323 µM) throughout.
As for `O=c1[nH]c(=O)n([C@H]2CCC[C@H]2CO)cc1I`, the EC50 in data set [28] and in data set [29] was 12.5 µg/mL (≈ 37.2 µM) each time.

The values above are taken from ChEMBL document CHEMBL3826905, “1'-Homonucleosides and their structural analogues: A review” (Eur J Med Chem, 2016).
